According to ChEMBL document CHEMBL4052726, “Design, synthesis, and biological evaluation of aryl N-methoxyamide derivatives as GPR119 agonists” (Bioorg Med Chem Lett, 2017):
Calls of active or inactive are those of the source. The calls are words filed in the database; no cut-off is given here.

How the values were obtained:
[1] = biological target: T1, Glucose-dependent insulinotropic receptor (Homo sapiens) (UniProt Q8TDV5); assay: Activation of human GPR119 expressed in CHOK1 cells harboring CRE-luciferase at 1 uM after 6 hrs by luciferase reporter gene assay relative to GSK1292263; format: functional, cell-based
T1 sequence (whole entry): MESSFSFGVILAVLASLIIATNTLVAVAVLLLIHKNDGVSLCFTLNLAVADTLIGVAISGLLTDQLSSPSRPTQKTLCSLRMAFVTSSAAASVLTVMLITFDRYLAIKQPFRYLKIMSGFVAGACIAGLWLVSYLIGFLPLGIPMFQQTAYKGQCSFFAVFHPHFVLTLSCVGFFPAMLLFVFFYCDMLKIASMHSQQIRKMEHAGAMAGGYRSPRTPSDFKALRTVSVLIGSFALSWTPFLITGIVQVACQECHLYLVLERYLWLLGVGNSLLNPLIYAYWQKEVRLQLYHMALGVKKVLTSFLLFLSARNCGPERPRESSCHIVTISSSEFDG

[2] = biological target: T2, Glucose-dependent insulinotropic receptor (Homo sapiens, UniProt Q8TDV5); assay: Agonist activity at human GPR119 expressed in CHOK1 cells harboring CRE-luciferase after 6 hrs by luciferase reporter gene assay; format: functional, cell-based
T2 sequence (Q8TDV5 whole entry): T1 sequence (whole entry)

[3] = test system: Mus musculus; assay: Decrease in plasma glucose AUC in C57BL/6 mouse at 30 to 50 mg/kg administered orally followed by glucose challenge after 30 mins by OGTT; format: functional, organism-based
[4] = biological target: T1, Glucose-dependent insulinotropic receptor (Homo sapiens); assay: Agonist activity at GPR119 in human NCI-H716 cells assessed as increase in forskolin-induced GLP-1 secretion by ELISA; format: cell-based

Row | SMILES | Activity [1] | EC50 [2] | Activity [4] | Activity [3]
1 | CON(C)C(=O)c1ccc(-c2csc3c(N(C)C4CCN(C(=O)OC(C)C)CC4)ncnc23)cc1F | 90% | 0.067 µM |  | 
2 | CCc1cnc(N2CCC(Oc3ncnc4c(-c5ccc(C(=O)N(C)OC)c(F)c5)csc34)CC2)nc1 | 100% | 0.105 µM |  | 
3 | CON(C)C(=O)c1ccc(-c2csc3c(N(C)C4CCN(C(=O)OC(C)C)CC4)ncnc23)cc1 | 82% | 0.156 µM |  | 
4 | CCc1cnc(N2CCC(N(C)c3ncnc4c(-c5ccc(C(=O)NOCc6ccccc6)cc5)csc34)CC2)nc1 | 41% |  |  | 
5 | CC(C)(C)OC(=O)N1CCC(COc2ccc(-c3ccc(C(=O)N4CCCCO4)cc3)nc2)CC1 | 73% | 0.321 µM |  | 
6 | CON(C)C(=O)c1ccc(-c2csc3c(N(C)C4CCN(C(=O)OC(C)(C)C)CC4)ncnc23)cc1 | 105% | 0.098 µM |  | 
7 | CONC(=O)c1ccc(-c2csc3c(N(C)C4CCN(C(=O)OC(C)(C)C)CC4)ncnc23)cc1 | 82% |  |  | 
8 | CON(C)C(=O)c1ccc(-c2ccc(OCC3CCN(C(=O)OC(C)(C)C)CC3)cn2)cc1 | 106% | 0.171 µM |  | 
9 | CON(C)C(=O)c1ccc(-c2ccc(OCC3CCN(C(=O)OC(C)C)CC3)cn2)cc1F | 96% | 0.092 µM |  | 
10 | CN(c1ncnc2c(-c3ccc(C(=O)N4CCCCO4)cc3)csc12)C1CCN(C(=O)OC(C)(C)C)CC1 | 66% |  |  | 

The next lines start with results.

Row | Activity [1] | EC50 [2] | Activity [4] | SMILES | Activity [3]
11 | 53% |  |  | CC(C)OC(=O)N1CCC(N(C)c2ncnc3c(-c4ccc(C(=O)NOCc5ccccc5)cc4)csc23)CC1 | 
12 | 95% | 0.319 µM |  | CCc1cnc(N2CCC(COc3ccc(-c4ccc(C(=O)N(C)OC)cc4)nc3)CC2)nc1 | 
13 | 100% | 0.064 µM |  | CON(C)C(=O)c1ccc(-c2csc3c(OC4CCN(C(=O)OC(C)(C)C)CC4)ncnc23)cc1 | 
14 | 87% | 0.053 µM |  | CON(C)C(=O)c1ccc(-c2csc3c(N(C)C4CCN(C(=O)OC(C)(C)C)CC4)ncnc23)cc1F | 
15 | 81% | 0.083 µM |  | CN(c1ncnc2c(-c3ccc(C(=O)NOCc4ccccc4)cc3)csc12)C1CCN(C(=O)OC(C)(C)C)CC1 | 
16 | 82% | 0.199 µM |  | CCc1cnc(N2CCC(Oc3ncnc4c(-c5ccc(C(=O)N(C)OC)cc5)csc34)CC2)nc1 | 
17 | 80% |  |  | CCc1cnc(N2CCC(N(C)c3ncnc4c(-c5ccc(C(=O)N(C)OC)cc5)csc34)CC2)nc1 | 
18 | 69% |  |  | CC(C)(C)OC(=O)N1CCC(COc2ccc(-c3ccc(C(=O)NOCc4ccccc4)cc3)nc2)CC1 | 
19 | 100% | 0.077 µM | Active | CCc1cnc(N2CCC(COc3ccc(-c4ccc(C(=O)N(C)OC)c(F)c4)nc3)CC2)nc1 | Active
20 | 114% | 0.073 µM |  | CON(C)C(=O)c1ccc(-c2ccc(OCC3CCN(C(=O)OC(C)(C)C)CC3)cn2)cc1F | 
21 | 73% |  |  | CCONC(=O)c1ccc(-c2csc3c(N(C)C4CCN(C(=O)OC(C)(C)C)CC4)ncnc23)cc1 | 
22 | 81% |  |  | CCc1cnc(N2CCC(N(C)c3ncnc4c(-c5ccc(C(=O)N(C)OC)c(F)c5)csc34)CC2)nc1 | 
23 | 88% | 0.057 µM |  | CON(C)C(=O)c1ccc(-c2csc3c(OC4CCN(C(=O)OC(C)(C)C)CC4)ncnc23)cc1F | 
24 | 80% | 0.155 µM |  | CON(C)C(=O)c1ccc(-c2ccc(OCC3CCN(C(=O)OC(C)C)CC3)cn2)cc1 | 
